In ChEMBL document CHEMBL1201862, “PubChem BioAssay data set” (2004):
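Each compound was tested at five concentrations against cells in 96-well plates for 48 hours. GI50 marks 50% less growth.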 Active and inactive are the calls of the source. Cut-off read from the data, not from the text of the source: active = GI50 up to about 1.1 µM and inactive = higher.

What was measured:
Test in all cases: DTP human tumour cell line panel, 48 h
A498 = system: A498
CCRF-CEM = system: CCRF-CEM
COLO 205 = system: COLO 205
HOP-92 = system: HOP-92
HT-29 = system: HT-29
IGROV-1 = system: IGROV-1
KM12 = system: KM12
LOX IMVI = system: LOX IMVI
MCF7 = system: MCF7
NCI-H226 = system: NCI-H226
OVCAR-8 = system: OVCAR-8
RXF 393 = system: RXF 393
SF-268 = system: SF-268
SF-295 = system: SF-295
SF-539 = system: SF-539
SR = system: SR
SW-620 = system: SW-620
T47D = system: T47D
TK-10 = system: TK-10
UO-31 = system: UO-31

Measured: GI50

Cc1ccc2c(n1)C(=O)C=CC2=O
inactive: A498 16.8 µM | CCRF-CEM 1.17 µM | COLO 205 2.14 µM | HOP-92 3.9 µM | HT-29 13.9 µM | IGROV-1 14.7 µM | KM12 21.2 µM | LOX IMVI 4.88 µM | MCF7 5.33 µM | NCI-H226 19.6 µM | OVCAR-8 15.1 µM | RXF 393 5.93 µM | SF-268 20.9 µM | SF-295 18.2 µM | SF-539 16.5 µM | SR 3.24 µM | SW-620 3 µM | T47D 1.88 µM | TK-10 2.52 µM | UO-31 5.46 µM

COc1ccccc1N1CCN(CCCNC(=O)c2cc(Cl)c(N)c(Cl)c2)CC1
inactive: A498 42 µM | CCRF-CEM 29.7 µM | COLO 205 > 10 µM | HOP-92 4.36 µM | HT-29 24.1 µM | IGROV-1 71.6 µM | KM12 26.9 µM | MCF7 35.2 µM | NCI-H226 28.4 µM | OVCAR-8 47.5 µM | RXF 393 27 µM | SF-268 77.4 µM | SF-295 16.3 µM | SF-539 28.6 µM | SR 12.7 µM | SW-620 37.5 µM | T47D 42.9 µM | TK-10 54.2 µM | UO-31 21.9 µM

O=C(CN1CCN(c2ccccn2)CC1)N1CCCn2c1nc1ccccc1c2=O
inactive: A498 > 100 µM | CCRF-CEM > 100 µM | COLO 205 > 100 µM | HOP-92 > 100 µM | HT-29 > 100 µM | IGROV-1 > 100 µM | KM12 > 100 µM | LOX IMVI > 100 µM | MCF7 > 100 µM | NCI-H226 > 100 µM | OVCAR-8 > 100 µM | SF-268 > 100 µM | SF-295 > 100 µM | SF-539 > 100 µM | SR > 100 µM | SW-620 > 100 µM | T47D > 100 µM | TK-10 > 100 µM | UO-31 > 100 µM

CN/C(N)=N/N=C1/C(=O)Nc2ccccc21
inactive: A498 > 100 µM | CCRF-CEM > 100 µM | COLO 205 > 100 µM | HOP-92 > 100 µM | HT-29 > 100 µM | IGROV-1 > 100 µM | KM12 > 100 µM | LOX IMVI > 100 µM | MCF7 > 100 µM | NCI-H226 > 100 µM | OVCAR-8 > 100 µM | RXF 393 > 100 µM | SF-268 > 100 µM | SF-295 > 100 µM | SR > 100 µM | SW-620 > 100 µM | T47D > 100 µM | TK-10 > 100 µM | UO-31 > 100 µM

CCOC(=O)[C@@]12C3C=CC(CC3)[C@]1(C(=O)c1ccccc1)C(=O)C(=O)N2c1ccccc1 (stereo partly specified)
inactive: A498 > 100 µM | COLO 205 > 100 µM | HOP-92 > 100 µM | HT-29 > 100 µM | KM12 > 100 µM | MCF7 > 100 µM | OVCAR-8 > 100 µM | RXF 393 > 100 µM | SF-268 > 100 µM | SF-295 > 100 µM | SF-539 > 100 µM | SR > 100 µM | SW-620 > 100 µM | T47D > 100 µM | TK-10 > 100 µM | UO-31 > 100 µM

COC(OC)C1OCC(n2cc(F)c(=O)[nH]c2=O)C1O (stereo unspecified)
inactive: A498 > 100 µM | CCRF-CEM > 100 µM | COLO 205 > 100 µM | HOP-92 > 100 µM | HT-29 > 100 µM | IGROV-1 > 100 µM | KM12 > 100 µM | LOX IMVI > 100 µM | MCF7 > 100 µM | NCI-H226 > 100 µM | OVCAR-8 > 100 µM | RXF 393 42.9 µM | SF-268 > 100 µM | SF-295 > 100 µM | SF-539 > 100 µM | SR > 100 µM | SW-620 > 100 µM | T47D > 100 µM | TK-10 > 100 µM | UO-31 > 100 µM

OC(c1ccc(Cl)cc1)(c1ccc(Cl)cc1)c1cncnc1
inactive: A498 21.2 µM | CCRF-CEM 15.3 µM | COLO 205 19 µM | HOP-92 17.4 µM | HT-29 16.6 µM | IGROV-1 > 10 µM | KM12 17.6 µM | LOX IMVI 23.2 µM | MCF7 25.9 µM | NCI-H226 20.7 µM | OVCAR-8 21.4 µM | RXF 393 13.4 µM | SF-295 19.1 µM | SR 31.7 µM | SW-620 21.1 µM | T47D 28.2 µM | TK-10 21.8 µM | UO-31 16 µM
